In US9701689B2, “Substituted pyridines and pyridazines as CCR10 receptor inhibitors” (KYOWA HAKKO KIRIN CO., LTD., priority 2012, dated 2017):

Biological target: T1, human CCR10 (Homo sapiens, UniProt P46092)
T1 construct: expressed in transfected cells; host or cells: KJMGER8 cells (Namalwa cell-derived line), beta-estradiol-induced; hCCR10G16 cells
T1 sequence (P46092 1-362): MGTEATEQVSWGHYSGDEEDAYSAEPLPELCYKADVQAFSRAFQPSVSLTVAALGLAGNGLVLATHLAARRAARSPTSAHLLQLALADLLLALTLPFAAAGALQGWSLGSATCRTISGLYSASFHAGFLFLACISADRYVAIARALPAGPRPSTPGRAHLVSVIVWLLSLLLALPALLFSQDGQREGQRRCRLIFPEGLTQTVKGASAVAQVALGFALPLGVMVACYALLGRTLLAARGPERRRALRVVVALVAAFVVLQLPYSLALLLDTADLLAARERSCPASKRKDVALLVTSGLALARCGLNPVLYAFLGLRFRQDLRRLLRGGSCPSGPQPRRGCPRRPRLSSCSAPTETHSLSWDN
Test: CCR10 antagonistic effect: calcium assay of human CCR10 (CTACK-induced increase of intracellular calcium in hCCR10G16 cells)
Type: cell-based
Details: at a concentration of not more than 1000 nmol/L; human CCR10-expressing hCCR10G16 cells, 300 nmol/L CTACK added; read-out: inhibition of increase in the calcium ion concentration
Outline: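 Inhibition of CTACK-evoked calcium flux (max minus min Fluo-3 fluorescence over ~5 min, FDSS) was calculated against control in β-estradiol-induced human CCR10/Gα16 KJMGER8 cells, after 30 min compound preincubation at 37 °C; CTACK added from a 300 nmol/L solution.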

| SMILES | inhibition at up to 1 µM [%] |
| --- | --- |
| Cc1c(S(N)(=O)=O)ncc(C(=O)N2CC(c3ccc(F)cc3)C2)c1Nc1cccc(Cl)c1 [Compound 285, 4-(3-chlorophenylamino)-5-[3-(4-fluorophenyl)azetidine-1-carbonyl]-3-methylpyridine-2-sulfonamide] | ≥ 50 |
| Cc1cccc(Nc2c(C(=O)N3CCN(c4ccc(F)cc4)C(=O)C3)cnc(S(N)(=O)=O)c2Cl)c1 [Compound 209, 3-chloro-5-[4-(4-fluorophenyl)-3-oxopiperazine-1-carbonyl]-4-(m-tolylamino)pyridine-2-sulfonamide] | ≥ 50 |
| Cc1c(S(=O)(=O)Nc2ccon2)ncc(C(=O)N2CCC(c3ccc(F)cc3)CC2)c1Nc1ccc(Cl)cc1F [Compound 270, 4-(4-chloro-2-fluorophenylamino)-5-[4-(4-fluorophenyl)piperidine-1-carbonyl]-N-(isoxazol-3-yl)-3-methylpyridine-2-sulfonamide] | ≥ 50 |
| Cc1cc(Nc2cc(S(N)(=O)=O)ncc2C(=O)N2CCC(c3ccc(F)cc3)CC2)c(Cl)cc1F [Compound 52, 4-(2-chloro-4-fluoro-5-methylphenylamino)-5-[4-(4-fluorophenyl)piperidine-1-carbonyl]pyridine-2-sulfonamide] | ≥ 50 |
| COC(=O)C1(c2ccccc2)CCN(C(=O)c2cnc(S(N)(=O)=O)c(Cl)c2Nc2cccc(C)c2)CC1 [Compound 201, methyl 1-[5-chloro-6-sulfamoyl-4-(m-tolylamino)nicotinoyl]-4-phenylpiperidine-4-carboxylate] | ≥ 50 |
| Cc1cc(F)ccc1Nc1cc(S(=O)(=O)N(C)C)ncc1C(=O)N1CCC(c2ccc(F)cc2)CC1 [Compound 125, 4-(4-fluoro-2-methylphenylamino)-5-[4-(4-fluorophenyl)piperidine-1-carbonyl]-N,N-dimethylpyridine-2-sulfonamide] | ≥ 50 |
| NS(=O)(=O)c1cc(Nc2cccc(F)c2Cl)c(C(=O)N2CCC(c3ccc(F)cc3)CC2)cn1 [Compound 74, 4-(2-chloro-3-fluorophenylamino)-5-[4-(4-fluorophenyl)piperidine-1-carbonyl]pyridine-2-sulfonamide] | ≥ 50 |
| Cc1cc(F)ccc1Nc1cc(S(=O)(=O)Nc2onc(C)c2C)ncc1C(=O)N1CCC(c2ccc(F)cc2)CC1 [Compound 158, N-(3,4-dimethylisoxazol-5-yl)-4-(4-fluoro-2-methylphenylamino)-5-[4-(4-fluorophenyl)piperidine-1-carbonyl]pyridine-2-sulfonamide] | ≥ 50 |
| Cc1ccccc1Nc1c(C(=O)N2CCC(c3ccc(F)cc3)CC2)cnc(S(=O)(=O)c2ccccc2)c1Cl [Compound 205, [5-chloro-6-(phenylsulfonyl)-4-(o-tolylamino)pyridin-3-yl][4-(4-fluorophenyl)piperidin-1-yl]methanone] | ≥ 50 |
| Cc1cc(F)ccc1Nc1cc(S(=O)(=O)N2CCCCC2)ncc1C(=O)N1CCC(c2ccc(F)cc2)CC1 [Compound 121, [4-(4-fluoro-2-methylphenylamino)-6-(piperidin-1-ylsulfonyl)pyridin-3-yl][4-(4-fluorophenyl)piperidin-1-yl]methanone] | ≥ 50 |
| Cc1ccc(Cl)cc1Nc1cc(S(N)(=O)=O)ncc1C(=O)N1CCC(c2ccc(F)cc2)CC1 [Compound 109, 4-(5-chloro-2-methylphenylamino)-5-[4-(4-fluorophenyl)piperidine-1-carbonyl]pyridine-2-sulfonamide] | ≥ 50 |
| Cc1c(S(=O)(=O)Nc2ccon2)ncc(C(=O)N2CCC(c3ccc(F)cc3)CC2)c1Nc1cccc(F)c1Cl [Compound 272, 4-(2-chloro-3-fluorophenylamino)-5-[4-(4-fluorophenyl)piperidine-1-carbonyl]-N-(isoxazol-3-yl)-3-methylpyridine-2-sulfonamide] | ≥ 50 |
| N#Cc1ccc(C#N)c(Nc2c(C(=O)N3CCC(c4ccc(F)cc4)CC3)cnc(S(N)(=O)=O)c2Cl)c1 [Compound 288, 3-chloro-4-(2,5-dicyanophenylamino)-5-[4-(4-fluorophenyl)piperidine-1-carbonyl]pyridine-2-sulfonamide] | ≥ 50 |
| Cc1c(S(N)(=O)=O)ncc(C(=O)N2CCC(c3ccc(F)cc3)CC2)c1NC1CCCCC1 [Compound 207, 4-(cyclohexylamino)-5-[4-(4-fluorophenyl)piperidine-1-carbonyl]-3-methylpyridine-2-sulfonamide] | ≥ 50 |
| Cc1cc(NS(=O)(=O)c2cc(Nc3ccc(F)cc3C)c(C(=O)N3CCC(c4ccc(F)cc4)CC3)cn2)on1 [Compound 12, 4-(4-fluoro-2-methylphenylamino)-5-[4-(4-fluorophenyl)piperidine-1-carbonyl]-N-(3-methylisoxazol-5-yl)pyridine-2-sulfonamide] | ≥ 50 |
| Cc1c(S(N)(=O)=O)ncc(C(=O)N2CCC(c3ccc(F)cc3)CC2)c1NCC1CCOCC1 [Compound 214, 5-[4-(4-fluorophenyl)piperidine-1-carbonyl]-3-methyl-4-[(tetrahydro-2H-pyran-4-yl)methylamino]pyridine-2-sulfonamide] | ≥ 50 |
| COc1ccc(Nc2c(C(=O)N3CCC(c4ccc(F)cc4)CC3)cnc(S(N)(=O)=O)c2Cl)c(Cl)c1 [Compound 179, 3-chloro-4-(2-chloro-4-methoxyphenylamino)-5-[4-(4-fluorophenyl)piperidine-1-carbonyl]pyridine-2-sulfonamide] | ≥ 50 |
| Cc1cc(Nc2cc(S(N)(=O)=O)ncc2C(=O)N2CCC(c3ccc(F)cc3)CC2)ccc1F [Compound 83, 4-(4-fluoro-3-methylphenylamino)-5-[4-(4-fluorophenyl)piperidine-1-carbonyl]pyridine-2-sulfonamide] | ≥ 50 |
| COC1(c2ccc(F)cc2)CCN(C(=O)c2cnc(S(N)(=O)=O)c(Cl)c2Nc2cc(Cl)ccc2C)CC1 [Compound 313, 3-chloro-4-(5-chloro-2-methylphenylamino)-5-[4-(4-fluorophenyl)-4-methoxypiperidine-1-carbonyl]pyridine-2-sulfonamide] | ≥ 50 |
| Cc1cccc(Nc2c(C(=O)N3CCC4(CC3)CNc3ccccc3C4)cnc(S(N)(=O)=O)c2Cl)c1 [Compound 218, 3-chloro-5-[2′,4′-dihydro-1′H-spiro[piperidine-4,3′-quinoline]-1-ylcarbonyl]-4-(m-tolylamino)pyridine-2-sulfonamide] | ≥ 50 |
| Cc1cc(F)ccc1Nc1c(C(=O)N2CCC(c3ccc(F)cc3)CC2)nnc(S(N)(=O)=O)c1Cl [Compound 240, 4-chloro-5-(4-fluoro-2-methylphenylamino)-6-[4-(4-fluorophenyl)piperidine-1-carbonyl]pyridazine-3-sulfonamide] | ≥ 50 |
| NS(=O)(=O)c1cc(Nc2ccc(Cl)c(F)c2Cl)c(C(=O)N2CCC(c3ccc(F)cc3)CC2)cn1 [Compound 75, 4-(2,4-dichloro-3-fluorophenylamino)-5-[4-(4-fluorophenyl)piperidine-1-carbonyl]pyridine-2-sulfonamide] | ≥ 50 |
| NS(=O)(=O)c1cc(Nc2ccc(OC(F)F)cc2)c(C(=O)N2CCC(c3ccc(F)cc3)CC2)cn1 [Compound 106, 4-[4-(difluoromethoxy)phenylamino]-5-[4-(4-fluorophenyl)piperidine-1-carbonyl]pyridine-2-sulfonamide] | ≥ 50 |
| Cc1cc(F)ccc1Nc1c(C(=O)N2CCC(c3ccc(F)cc3)CC2)cnc(S(=O)(=O)Nc2nccs2)c1Cl [Compound 188, 3-chloro-4-(4-fluoro-2-methylphenylamino)-5-[4-(4-fluorophenyl)piperidine-1-carbonyl]-N-(thiazol-2-yl)pyridine-2-sulfonamide] | ≥ 50 |
| Cc1cc(F)ccc1Nc1c(C(=O)N2CCC(c3ccc(F)cc3)CC2)cnc(S(=O)(=O)Nc2ccccc2)c1Cl [Compound 191, 3-chloro-4-(4-fluoro-2-methylphenylamino)-5-[4-(4-fluorophenyl)piperidine-1-carbonyl]-N-phenylpyridine-2-sulfonamide] | ≥ 50 |
| CCCNC(=O)NS(=O)(=O)c1cc(Nc2cc(C)c(Cl)cc2Cl)c(C(=O)N2CCC(c3ccc(F)cc3)CC2)cn1 [Compound 165, 4-(2,4-dichloro-5-methylphenylamino)-5-[4-(4-fluorophenyl)piperidine-1-carbonyl]-N-(propylcarbamoyl)pyridine-2-sulfonamide] | ≥ 50 |
| CNC(=O)C1COCCN1S(=O)(=O)c1ncc(C(=O)N2CCC(c3ccc(F)cc3)CC2)c(Nc2ccc(F)cc2C)c1Cl (stereo not shown) [Compound 35, 4-{3-chloro-4-(4-fluoro-2-methylphenylamino)-5-[4-(4-fluorophenyl)piperidine-1-carbonyl]pyridin-2-ylsulfonyl}-N-methylmorpholine-3-carboxamide] | ≥ 50 |
| CCNC(=O)NS(=O)(=O)c1cc(NCc2ccccc2)c(C(=O)N2CCC(c3ccc(F)cc3)CC2)cn1 [Compound 163, 4-(benzylamino)-N-(ethylcarbamoyl)-5-[4-(4-fluorophenyl)piperidine-1-carbonyl]pyridine-2-sulfonamide] | ≥ 50 |
